# Measured values taken from ChEMBL document CHEMBL6153033, “Design and synthesis of N-(3-cyanothiophen-2-yl)-2-phenoxyacetamide-based α-glucosidase inhibitors” (Bioorg Med Chem Lett, 2025).
# How the values were obtained:
# [1] = target: T1, Alpha glucosidase (Homo sapiens, UniProt O43451+P10253+P14410+Q2M2H8); experiment: Inhibition of alpha-glucosidase (unknown origin); assay type: protein assay
# [2] = target: T1, Alpha glucosidase; experiment: Inhibition of alpha-glucosidase (unknown origin) assessed as inhibition rate at 100 uM relative to control; assay type: protein assay
# [3] = Stability in mouse plasma assessed as compound remaining parent compound after 1 hrs; assay type: ADME, cell-free; settings: read-out: Stability
# [4] = Aqueous solubility of compound; assay type: physicochemical
# [5] = Stability in mouse plasma assessed as compound remaining parent compound after 6 hrs; assay type: ADME, cell-free; settings: read-out: Stability
# [6] = Stability in mouse plasma assessed as compound remaining parent compound after 0.5 hrs; assay type: ADME, cell-free; settings: read-out: Stability
# [7] = Selectivity index, ratio of IC50 for alpha-amylase (unknown origin) to IC50 for alpha-glucosidase (unknown origin)
# [8] = Cytotoxicity against human LO2 cells by MTT assay; assay type: toxicity, cell-based, L02
# [9] = Inhibition of alpha-amylase (unknown origin); parameters: species or system Homo sapiens
# [10] = target: T1, Alpha glucosidase; experiment: Binding affinity to alpha-glucosidase (unknown origin) assessed as decreased in Vmax using p-nitrophenyl glucopyranoside as substrate at 1 to 16 uM by Lineweaver-Burk plot analysis; assay type: protein assay; settings: dose 1-16 µM
# [11] = target: T1, Alpha glucosidase; experiment: Binding affinity to alpha-glucosidase (unknown origin) assessed as inhibition constant; assay type: protein assay
smiles,measurement,setting,value
CC1CCc2c(sc(NC(=O)COc3ccc(C=O)cc3)c2C#N)C1 (centres undefined),IC50,[1],24.28 µM
COc1cc(C=O)ccc1OCC(=O)Nc1sc2c(c1C#N)CCCC2=O,inhibition,[2],45.6%
Cc1cccc(C=O)c1OCC(=O)Nc1sc2c(c1C#N)CCC(C)C2 (centres undefined),IC50,[1],> 50 µM
COc1cc(C=O)ccc1OCC(=O)Nc1sc2c(c1C#N)CCCCC2,inhibition,[2],7.31%
COc1ccc(CNC(=O)Nc2sc3c(c2C#N)CCCC3)c(OC)c1,IC50,[1],15.32 µM
same,inhibition,[2],73.9%
same,remaining at 1 h,[3],51.4%
same,solubility,[4],28.6 µM
same,remaining at 6 h,[5],28.5%
same,remaining at 0.5 h,[6],78%
COc1cc(C=O)ccc1OCC(=O)Nc1sc2c(c1C#N)CCC2,IC50,[1],35.6 µM
same,inhibition,[2],70.4%
CC1CCc2c(sc(NC(=O)COc3cccc(C=O)c3)c2C#N)C1 (centres undefined),IC50,[1],20.85 µM
COc1cc(C=O)ccc1OCC(=O)Nc1sc2c(c1C#N)CCCC2,IC50,[1],14.09 µM
same,inhibition,[2],70.4%
COC(=O)C1CCCc2sc(NC(=O)COc3ccc(C=O)cc3OC)c(C#N)c21 (centres undefined),IC50,[1],60.25 µM
same,inhibition,[2],69.8%
COc1ccc(C=O)cc1OCC(=O)Nc1sc2c(c1C#N)CCC(C)C2 (centres undefined),IC50,[1],4.69 µM
same,Selectivity Index,[7],8.19
same,CC50,[8],> 200 µM
same,remaining at 1 h,[3],35%
same,solubility,[4],25 µM
same,remaining at 6 h,[5],0%
same,remaining at 0.5 h,[6],76.5%
same,IC50,[9],38.5 µM
Cc1ccc(C=O)c(OCC(=O)Nc2sc3c(c2C#N)CCC(C)C3)c1 (centres undefined),IC50,[1],> 50 µM
COc1cc(C=O)ccc1OCC(=O)Nc1sc2c(c1C#N)CCOC2,IC50,[1],32.38 µM
same,inhibition,[2],67.3%
COc1cc(C=O)ccc1OCC(=O)Nc1sc2c(c1C#N)CCC(C)C2 (centres undefined),IC50,[1],7.42 µM
same,inhibition,[2],93.4%
same,Selectivity Index,[7],6.97
same,CC50,[8],> 200 µM
same,remaining at 1 h,[3],72.9%
same,solubility,[4],28.6 µM
same,remaining at 6 h,[5],33.6%
same,remaining at 0.5 h,[6],83.3%
same,IC50,[9],51.7 µM
CCOC(=O)C1CCc2sc(NC(=O)COc3ccc(C=O)cc3OC)c(C#N)c21 (centres undefined),IC50,[1],69.78 µM
same,inhibition,[2],61.5%
COc1ccc(C=O)c(OCC(=O)Nc2sc3c(c2C#N)CCC(C)C3)c1 (centres undefined),IC50,[1],7.17 µM
same,Selectivity Index,[7],9.2
same,CC50,[8],> 200 µM
same,remaining at 1 h,[3],42.7%
same,solubility,[4],22.2 µM
same,remaining at 6 h,[5],30%
same,remaining at 0.5 h,[6],57%
same,IC50,[9],65.7 µM
COc1cc(C=O)cc(OCC(=O)Nc2sc3c(c2C#N)CCC(C)C3)c1OC (racemic),IC50,[1],2.11 µM
same,Selectivity Index,[7],17.5
same,CC50,[8],> 200 µM
same,remaining at 1 h,[3],61.3%
same,solubility,[4],25 µM
same,remaining at 6 h,[5],50.6%
same,remaining at 0.5 h,[6],84.3%
same,IC50,[9],36.9 µM
same,Activity,[10],Dose-dependent-effect
same,Ki,[11],5.56 µM
Cc1cc(C=O)ccc1OCC(=O)Nc1sc2c(c1C#N)CCC(C)C2 (centres undefined),IC50,[1],35.55 µM
COc1cc(C=O)ccc1OCC(=O)Nc1sc2c(c1C#N)CCC(O)C2 (centres undefined),IC50,[1],10.35 µM
same,inhibition,[2],86.5%
C[C@H]1O[C@H](O[C@H]2[C@H](O)[C@@H](O)[C@@H](O[C@H]3[C@H](O)[C@@H](O)C(O)O[C@@H]3CO)O[C@@H]2CO)[C@H](O)[C@@H](O)[C@@H]1N[C@H]1C=C(CO)[C@@H](O)[C@H](O)[C@H]1O (some centres undefined) [ACARBOSE],CC50,[8],> 200 µM
same,IC50,[9],70 µM
COc1cc(C=O)ccc1OCC(=O)Nc1sc2c(c1C#N)CCC1(C2)OCCO1,inhibition,[2],15.7%
CC1CCc2c(sc(NC(=O)COc3ccccc3C=O)c2C#N)C1 (centres undefined),IC50,[1],> 50 µM
